For 2 molecules, MIC results are on record in ChEMBL document CHEMBL2046305, “Discovery of selective menaquinone biosynthesis inhibitors against Mycobacterium tuberculosis” (J Med Chem, 2012).

This test relates to Mycobacterium tuberculosis. The test is described as follows: Antibacterial activity against Mycobacterium bovis BCG by microplate alamar blue assay. The following applies: variant bovis BCG. In kind it is functional. On the technique in general: The colour change of resazurin is a common sign of viable cells or microbes.

Molecules are shown by their SMILES. Values after ≈ are worked out from the molar mass of the structure shown.

`CCCCCC[C@H](CN1CCC(COc2cccc(C(=O)c3ccc(Cl)cc3)c2)CC1)OC(N)=O`: 3 µg/mL (≈ 5.99 µM) was the least that counted as inhibitory (MIC). For `CCCCCC[C@H](CN1CCC(COc2cccc(/C(=N\OC)c3ccc(Cl)cc3)c2)CC1)OC(N)=O` the value was 2.95 µg/mL (≈ 5.56 µM).
